The term IC50 denotes the concentration at which inhibition is half-maximal. Read a high IC50 as weaker potency in that assay.

Each structure is given as a SMILES string.

Chain of human PD-L1 (Q9NZQ7 19-239): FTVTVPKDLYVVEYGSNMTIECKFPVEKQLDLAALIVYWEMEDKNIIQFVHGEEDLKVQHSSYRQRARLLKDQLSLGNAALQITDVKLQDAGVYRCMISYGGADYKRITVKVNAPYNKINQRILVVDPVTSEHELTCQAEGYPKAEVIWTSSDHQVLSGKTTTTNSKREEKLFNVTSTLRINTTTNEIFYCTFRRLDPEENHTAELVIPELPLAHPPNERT

The target of the experiment is human PD-L1 (Homo sapiens (Human), UniProt Q9NZQ7). Nature of the experiment: Enzyme-Linked Immunosorbent Assay—ELISA (PD-1/PD-L1 binding). The settings on record: plates coated with human PD-L1; Human PD-1 and biotin added; absorbance at 450 nm. As for the experimental part:
96 Well plates were coated with 1 μg/mL of human PD-L1 (obtained from R&D) in PBS overnight at 4° C. The wells were then blocked with 2% BSA in PBS (W/V) with 0.05% TWEEN-20 for 1 hour at 37° C. The plates were washed 3 times with PBS/0.05% TWEEN-20 and the compounds were serial diluted (1:5) in dilution medium and added to the ELISA plates. Human PD-1 and biotin 0.3 μg/mL (ACRO Biosystems) were added and incubated for 1 hour at 37° C. then washed 3 times with PBS/0.05% TWEEN-20. A second block was performed with 2% BSA in PBS (W/V)/0.05% TWEEN-20 for 10 min at 37° C. and the plates were washed 3 times with PBS/0.05% TWEEN-20. Streptavidin-HRP was added for 1 hour at 37° C. then the plates were washed 3 times with PBS/0.05% TWEEN-20. TMB substrate was added and reacted for 20 min at 37° C. A stop solution (2 N aqueous H2SO4) was added. The absorbance was read at 450 nm using a micro-plate spectrophotometer. The results are shown in Table 1: IC50 values are provided as follows: from 1000 to 10,000 nM (+); from 10 up to 1000 nM (++); less than 10 nM (+++).
In general terms: ELISA stands for enzyme-linked immunosorbent assay.
On to `COc1nc(-c2cccc(-c3cccc(NC(=O)c4cn(C)c(=O)n(C)c4=O)c3C)c2Cl)ccc1CNCCC(C)(C)O` [Compound 1.023], for which the IC50 is < 10 nM.
Under `COc1nc(-c2cccc(-c3cccc(NC(=O)c4cn(C)c(=O)n(C)c4=O)c3Cl)c2Cl)cnc1CN1CC(C(=O)O)C1` [Compound 1.100] stands < 10 nM.
Under `COc1nc(-c2cccc(-c3cccc(NC(=O)c4cn(C)c(=O)n(C)c4=O)c3C)c2Cl)ccc1CNC(C)C` [Compound 1.037] stands < 10 nM; under `COc1nc(-c2cccc(-c3cccc(NC(=O)c4cn(C)c(=O)n(C)c4=O)c3Cl)c2Cl)ccc1CN[C@@](C)(CO)C(=O)O` [Compound 1.070], < 10 nM; under `COc1nc(-c2cccc(-c3cccc(NC(=O)c4cn(C)c(=O)n(C)c4=O)c3Cl)c2Cl)ccc1CNC[C@@H](O)CO` [Compound 1.030], < 10 nM.
Under `COc1nc(-c2cccc(-c3cccc(NC(=O)c4cn(C)c(=O)n(C)c4=O)c3C)c2Cl)ccc1CNCC(=O)O` [Compound 1.051] stands < 10 nM.
As to `COc1nc(-c2cccc(-c3cccc(NC(=O)c4cn(C)c(=O)n(C)c4=O)c3Cl)c2F)ccc1CN[C@@H]1CCOC[C@@H]1O` [Compound 1.018], the IC50 was < 10 nM.
With `CCc1nc(-c2cccc(-c3cccc(NC(=O)c4cn(C)c(=O)n(C)c4=O)c3C)c2Cl)ccc1CNC[C@@H]1CCC(=O)N1` [Compound 1.054] the figure was < 10 nM; with `COc1nc(-c2cccc(-c3cccc(NC(=O)c4cn(C)c(=O)n(C)c4=O)c3C)c2Cl)ccc1CNC[C@@H]1CCC(=O)N1C` [Compound 1.043], < 10 nM; with `COc1cc(-c2cccc(-c3cccc(NC(=O)c4cn(C)c(=O)n(C)c4=O)c3C)c2Cl)cnc1CN[C@@H]1CCOC[C@@H]1O` [Compound 1.009], < 10 nM.
For `COc1nc(-c2cccc(-c3cccc(NC(=O)c4cn(C)c(=O)n(C)c4=O)c3C)c2Cl)ccc1CN1CC2(CCC(=O)N2)C1` [Compound 1.096], the IC50 was < 10 nM.

Source of the values: patent US11713307B2, “Heteroaryl-biphenyl amides for the treatment of PD-L1 diseases” (CHEMOCENTRYX, INC., priority 2019, dated 2023).
